Reference: PubChem BioAssay (NCI)
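96-well plates; 48 h exposure; 5 concentrations. Endpoints by linear interpolation between flanking doses. Not reached: highest tested concentration assigned. GI50 marks 50% less growth. TGI denotes the concentration required for complete inhibition of growth.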

How the values were obtained:
Test in all cases: inhibition of tumour cell growth, NCI panel, 48 h
786-0 renal = tested on: 786-0 renal
EKVX NSCLC = tested on: EKVX NSCLC
HCT-15 colon = tested on: HCT-15 colon
MDA-MB-435 = tested on: MDA-MB-435
OVCAR-4 ovarian = tested on: OVCAR-4 ovarian
OVCAR-8 ovarian = tested on: OVCAR-8 ovarian
PC-3 prostate = tested on: PC-3 prostate
SF-539 CNS = tested on: SF-539 CNS
SK-MEL-5 melanoma = tested on: SK-MEL-5 melanoma
SNB-75 CNS = tested on: SNB-75 CNS

Compound | GI50 (786-0 renal) [µM] | TGI (786-0 renal) [µM] | GI50 (EKVX NSCLC) [µM] | TGI (EKVX NSCLC) [µM] | GI50 (HCT-15 colon) [µM] | TGI (HCT-15 colon) [µM] | GI50 (MDA-MB-435) [µM] | TGI (MDA-MB-435) [µM] | GI50 (OVCAR-4 ovarian) [µM] | TGI (OVCAR-4 ovarian) [µM] | GI50 (OVCAR-8 ovarian) [µM] | TGI (OVCAR-8 ovarian) [µM] | GI50 (PC-3 prostate) [µM] | TGI (PC-3 prostate) [µM] | GI50 (SF-539 CNS) [µM] | TGI (SF-539 CNS) [µM] | GI50 (SK-MEL-5 melanoma) [µM] | TGI (SK-MEL-5 melanoma) [µM] | GI50 (SNB-75 CNS) [µM] | TGI (SNB-75 CNS) [µM]
CCNCCNc1cc(-c2ccc(F)cc2)c(C#N)c2nc3ccccc3n12 | 1.77 | 3.45 | 13.6 | 26.7 | 2.31 | 5.86 | 1.78 | 3.5 | 3.4 | 14.5 | 4.52 | 15.8 | 6.98 | 19.5 | 1.7 | 3.24 | 1.74 | 3.18 | 1.81 | 4.39
COc1cc(C2C(C#N)=C(N)OC3=C2C(=O)c2ccccc2C3=O)cc(OC)c1OC (stereo not given) | 5.8 | > 100 | 12.6 | 34 | 1.45 | 18.5 | 0.239 | 0.523 | 3.45 | 12.5 | 1.12 | 24.1 | 0.577 | > 100 | 0.344 | 4.56 | 0.439 | 1.81 | 0.293 | 25.1
N#Cc1nc(-c2ccccc2)oc1S(=O)(=O)N1CCOCC1 | 16 | 32 | 4.4 | 24.9 | 1.45 | 3.39 | 4.03 | 15.1 | 2.73 | 9.2 | 3.55 | 16.2 | 5.79 | 20.8 | 2.6 | 7.69 | 5.23 | 17.3 | 11.2 | 23.7
COc1ccc2c3c(c(OCCCN(C)C)nc2c1)-c1ccc(Cl)cc1C3=O | 1.76 | 3.64 | 7.17 | 22.7 | 1.79 | 10.6 | 5.53 | 18.7 | 2.83 | 17.2 | 5.98 | 34.6 | 4.72 | 19.4 | 8.2 | 21.3 | 14.6 | 28.4 | 1.55 | 18.3
CC(=O)N1CC(F)(F)c2c(Sc3ncc(N4CCC5(CC4)COC[C@H]5N)nc3N)cccc21 | 10.8 | 27.1 | 8.27 | > 100 | 24 | 96.8 | 31 | > 100 | 10.5 | 96.6 | 35 | > 100 | 29.8 | > 100 | 11.2 | 23.3 | 16 | 30.1 | 3.19 | 38.2
O=C(/C=C/c1cccc(Cl)c1)c1ccc(Cl)cc1Cl | 12.9 | 27.6 | 12.8 | 34.4 | 12.2 | > 50 | 8.31 | 16.8 | 13.4 | 41.5 | 12 | 36.9 | 15.2 | > 50 | 12.6 | 28 | 8.78 | 17.5 | 9.5 | 30.1
CC[C@H](C)[C@H](NC(=O)C12C3C4C1C1C2C3C41NC(C)=O)C(=O)N(C)[C@H](C[C@@H](OC(C)=O)c1nc(C(=O)N[C@@H](Cc2ccccc2)C[C@H](C)C(=O)OC)cs1)C(C)C (stereo not given in full) | 0.902 | > 14.3 | 2.81 | > 14.3 | 2.41 | > 14.3 | 0.0427 | 0.625 | 1.38 | > 14.3 | 0.614 | > 14.3 | 0.582 | > 14.3 | 0.349 | 1.01 | 0.152 | 2.98 | 0.109 | > 14.3
Oc1ccccc1-n1c(-c2ccccc2)ccc1-c1ccccc1 | 13.2 | 26.5 | 2.64 | 25.3 | 5.57 | 28.7 | 2.81 | 20.9 | 7.24 | 23.3 | 12.1 | 29.6 | 2.95 | 15.8 | 15.2 | 31.9 | 3.05 | > 100 | 4.46 | 21.5
COc1ccc(/C=C\c2cc(OC)c(OC)c(OC)c2)c(NS(=O)(=O)c2ccc(C)cc2)c1O | 0.129 | 30.2 | 0.0644 | > 100 | 0.0395 | > 81.6 | 0.0208 | 0.0621 | 0.233 | > 100 | 0.0498 | > 100 | 0.04 | > 100 | 0.0237 | 0.0641 | 0.0359 | 0.195 | 0.0304 | > 100
COc1ccc(NC(=O)c2cc(OC)c(OC)c(OC)c2)cc1O | 45.7 | > 100 | > 100 | > 100 | 1.46 | > 100 | 0.241 | 0.872 | 15.3 | > 100 | 4.98 | > 100 | 2.52 | > 100 | 2.75 | > 100 | 1.43 | 48.6 | 1.56 | > 100
COc1ccc(C(Nc2ncccn2)c2cc3c(cc2O)OCO3)cc1 (stereo not given) |  | 39.3 |  | 55.7 |  | 44.6 |  | 50.6 |  | > 100 |  | 45.2 |  | 43.2 |  | 33.1 |  | 50.9 |  | 22.7
CC#CC(=O)N1CCC[C@H]1c1nc(-c2ccc(C(=O)Nc3ccccn3)cc2)c2c(N)nccn12 | > 100 | > 100 | 35 | > 100 | > 72.3 | > 100 | 44.1 | > 100 | 58 | > 100 | > 80.4 | > 100 | > 84.8 | > 100 | > 100 | > 100 | 40.5 | > 100 | 24.5 | > 100
